Assay [1] has as its system PC3 (prostate). Description: In vitro cytotoxic activity (MTT) assay, PC3. The format is cell-based. Particulars: Homo sapiens, 96 hours exposure, read-out: Cytotoxicity activity IC50 (50% inhibition of cell proliferation). As for the experimental part:
(§1) Compounds 1-16 were screened for their in vitro cytotoxic activity utilizing a 3-(4,5-dimethyl-thiazol-2-yl)-2,5-diphenyltetrazolium bromide (MTT) assay against selected cancer human cell lines consisting of PC3 (prostate), HCT116 (colon), A375 (melanoma), H1299 (lung), MIAPaCa-2 (pancreas), HL60 (leukemia), MCF7 (breast), MDA-MB-231 (breast) (T. Mosmann, J. Immunol. Meth., 1983, 65, 55-63). The cells were cultured at 37° C. in RMPI1640 medium supplemented with 10% fetal bovine serum, 50 IU/mL penicillin, and 50 μg/mL streptomycin in a 5% CO2 incubator. All cells were sub-cultured 3 times/week by trypsinisation. Viable cells were seeded and allowed to adhere for 12 hours before a test drug was added in 96-well plates at an initial density of 1.0×10^5 cells/mL. Tumor cell lines were separately exposed to various concentrations of the tested compounds followed by incubation at a temperature of 37° C. during 96 hours inside a medium of fresh RMPI 1640. Cells were subsequently incubated at 37° C. using MTT at 0.5 mg/mL during 4 hours. After removal of supernatant, formazan crystals were dissolved in isopropanol and the optical density was measured at 570 nm. CX-4945 was used as a positive control.

Assay [2] concerns HCT116 (colon). Description: In vitro cytotoxic activity (MTT) assay, HCT116. The format is cell-based. Particulars: Homo sapiens, HCT-116, 96 hours exposure, read-out: Cytotoxicity activity IC50 (50% inhibition of cell proliferation). As for the experimental part:
as §1

The test system of assay [3] is A375 (melanoma). The experiment in a line: In vitro cytotoxic activity (MTT) assay, A375. The format is cell-based. To be noted: Homo sapiens, A-375, 96 hours exposure, read-out: Cytotoxicity activity IC50 (50% inhibition of cell proliferation). How it is done:
as §1

The test system of assay [4] is H1299 (lung). Description: In vitro cytotoxic activity (MTT) assay, H1299. The format is cell-based. Particulars: Homo sapiens, NCI-H1299, 96 hours exposure, read-out: Cytotoxicity activity IC50 (50% inhibition of cell proliferation). As for the experimental part:
as §1

The test system of assay [5] is MIAPaCa-2 (pancreas). The experiment in a line: In vitro cytotoxic activity (MTT) assay, MIAPaCa-2. The class given is cell-based. Particulars: Homo sapiens, MIA PaCa-2, 96 hours exposure, read-out: Cytotoxicity activity IC50 (50% inhibition of cell proliferation). As for the experimental part:
as §1

For assay [6], the system named is HL60 (leukemia). Description: In vitro cytotoxic activity (MTT) assay, HL60. The class given is cell-based. Particulars: Homo sapiens, HL-60, 96 hours exposure, read-out: Cytotoxicity activity IC50 (50% inhibition of cell proliferation). As for the experimental part:
as §1

Assay [7] relates to MCF7 (breast). The experiment in a line: In vitro cytotoxic activity (MTT) assay, MCF7. The format is cell-based. Particulars: Homo sapiens, 96 hours exposure, read-out: Cytotoxicity activity IC50 (50% inhibition of cell proliferation). How it is done: as §1
For assay [8], the system named is MDA-MB-231 (breast). The experiment in a line: In vitro cytotoxic activity (MTT) assay, MDA-MB-231. The class given is cell-based. To be noted: Homo sapiens, 96 hours exposure, read-out: Cytotoxicity activity IC50 (50% inhibition of cell proliferation). As for the experimental part: as §1
The target of assay [9] is T1, recombinant human CK2 (holoenzyme) (Homo sapiens, UniProt P68400).
T1 construct: purchased Millipore
T1 sequence (P68400 whole entry): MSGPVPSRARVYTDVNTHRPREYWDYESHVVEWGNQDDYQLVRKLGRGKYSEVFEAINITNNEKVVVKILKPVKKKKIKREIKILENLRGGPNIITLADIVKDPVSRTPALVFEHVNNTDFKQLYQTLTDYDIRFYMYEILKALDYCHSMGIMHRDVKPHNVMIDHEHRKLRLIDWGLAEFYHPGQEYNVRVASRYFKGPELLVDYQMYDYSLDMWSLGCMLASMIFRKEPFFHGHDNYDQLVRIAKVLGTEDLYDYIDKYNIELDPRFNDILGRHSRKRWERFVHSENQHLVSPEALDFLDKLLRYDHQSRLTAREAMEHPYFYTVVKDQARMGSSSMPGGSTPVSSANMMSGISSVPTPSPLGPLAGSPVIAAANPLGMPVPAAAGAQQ
T1 sequence (P67870 whole entry partner): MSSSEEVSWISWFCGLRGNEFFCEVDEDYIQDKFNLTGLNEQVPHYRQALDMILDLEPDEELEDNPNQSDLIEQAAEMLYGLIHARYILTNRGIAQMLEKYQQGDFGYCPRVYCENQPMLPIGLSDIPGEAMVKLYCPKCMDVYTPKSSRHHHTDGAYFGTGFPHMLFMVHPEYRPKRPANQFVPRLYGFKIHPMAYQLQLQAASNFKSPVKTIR
Description: CK2 Kinase Assay (33P-ATP, filter plate). The class given is biochemical. To be noted: final ATP concentration 15 μM, 10 min at 30° C.; read-out: protein kinase CK2 IC50. As for the experimental part:
CK2 Kinase Assay was conducted using the protocol as described in Pierre F. et al; J. Med. Chem. 2011, 54, 635-654. The tested compounds in aqueous solution were added at a volume of 10 μL to a reaction mixture comprising 10 μL of assay dilution buffer (ADB; 20 mM MOPS, pH 7.2, 25 mM β-glycerol phosphate, 5 mM EGTA, 1 mM sodium orthovanadate, and 1 mM dithiothreitol), 10 μL of substrate peptide (RRRDDDSDDD, dissolved in ADB at a concentration of 1 mM), 10 μL of recombinant human CK2 (RRββ-holoenzyme, 25 ng dissolved in ADB; Millipore). Reactions were initiated by the addition of 10 μL of ATP solution (90% 75 mMMgCl2, 75 μM ATP (final ATP concentration: 15 μM) dissolved in ADB; 10% [γ-33P] ATP (stock 1 mCi/100 μL; 3000 Ci/mmol (Perkin-Elmer) and maintained for 10 min at 30° C. The reactions were quenched with 100 μL of 0.75% phosphoric acid and then transferred to and filtered through a phosphor cellulose filter plate (Millipore). After washing each well five times with 0.75% phosphoric acid, the plate was dried under vacuum for 5 min and, following the addition of 15 μL of scintillation fluid to each well, the residual radioactivity was measured using a Wallac […] counter. The IC50 values were derived from eight concentrations of test inhibitors.

As for `O=C(O)c1cc2c3cnccc3nc(Nc3cccc(Cl)c3)n2n1` [Compound 1, 6-((3-chlorophenyl)amino)pyrazolo[1,5-c]pyrido[3,4-e]pyrimidine-9-carboxylic Acid], the IC50 was found to be 2.3 µM in assay [1]; 3.1 µM in assay [2]; 4.2 µM in assay [3]; 2.5 µM in [4]; 1.7 µM in assay [5]; 5.1 µM in assay [6]. The results for the IC50 in assay [7], in assay [8] and in [9] were 5.6 µM, 4.9 µM and 0.055 µM, respectively.
